The values below come from ChEMBL document CHEMBL1153994.

For one test, the target named is T1, Phospholipase D1 (Homo sapiens, UniProt Q13393).
T1 sequence (Q13393 whole entry): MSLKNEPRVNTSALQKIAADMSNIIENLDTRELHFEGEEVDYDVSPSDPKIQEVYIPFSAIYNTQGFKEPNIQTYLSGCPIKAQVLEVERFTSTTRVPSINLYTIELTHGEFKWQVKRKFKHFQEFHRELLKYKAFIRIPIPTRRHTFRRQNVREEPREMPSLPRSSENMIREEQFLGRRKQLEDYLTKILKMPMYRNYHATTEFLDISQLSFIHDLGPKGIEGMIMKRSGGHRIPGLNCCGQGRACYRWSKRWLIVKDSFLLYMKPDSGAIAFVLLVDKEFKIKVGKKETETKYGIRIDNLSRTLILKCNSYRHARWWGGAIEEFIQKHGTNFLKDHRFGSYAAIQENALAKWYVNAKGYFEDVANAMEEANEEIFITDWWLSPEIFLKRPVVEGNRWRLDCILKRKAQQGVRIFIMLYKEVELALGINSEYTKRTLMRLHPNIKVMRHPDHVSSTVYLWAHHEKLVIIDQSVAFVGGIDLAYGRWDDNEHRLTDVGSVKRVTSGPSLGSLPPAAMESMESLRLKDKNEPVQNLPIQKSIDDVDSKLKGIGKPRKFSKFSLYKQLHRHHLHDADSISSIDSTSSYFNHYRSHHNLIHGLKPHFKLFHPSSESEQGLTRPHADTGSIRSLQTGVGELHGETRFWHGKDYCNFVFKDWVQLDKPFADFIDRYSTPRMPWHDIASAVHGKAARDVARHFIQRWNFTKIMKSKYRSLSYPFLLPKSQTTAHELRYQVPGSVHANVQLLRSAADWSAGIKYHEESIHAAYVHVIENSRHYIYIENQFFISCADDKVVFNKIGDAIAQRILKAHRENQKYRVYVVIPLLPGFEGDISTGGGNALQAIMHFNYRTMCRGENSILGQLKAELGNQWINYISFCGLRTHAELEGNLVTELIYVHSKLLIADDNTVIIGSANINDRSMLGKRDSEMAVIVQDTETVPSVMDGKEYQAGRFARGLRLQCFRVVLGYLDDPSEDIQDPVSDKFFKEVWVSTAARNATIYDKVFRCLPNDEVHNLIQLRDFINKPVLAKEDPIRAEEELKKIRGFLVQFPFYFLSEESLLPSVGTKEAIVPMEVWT
As to the kind of experiment: Inhibition of PLD1 in human Calu1 cells. It is filed as cell-based, Calu-1.

The next test deals with Phospholipase D2 (Homo sapiens, UniProt O14939). As to the kind of experiment: Inhibition of GFP-labeled PLD2 in human HEK293 cells. It is filed as cell-based.
The test system of a further test is HEK293. As to the kind of experiment: Selectivity for PLD1 in human Calu1 cells over GFP-labeled PLD2 in human HEK293 cells. It is filed as cell-based.

Sequence of Phospholipase D2 (O14939 whole entry): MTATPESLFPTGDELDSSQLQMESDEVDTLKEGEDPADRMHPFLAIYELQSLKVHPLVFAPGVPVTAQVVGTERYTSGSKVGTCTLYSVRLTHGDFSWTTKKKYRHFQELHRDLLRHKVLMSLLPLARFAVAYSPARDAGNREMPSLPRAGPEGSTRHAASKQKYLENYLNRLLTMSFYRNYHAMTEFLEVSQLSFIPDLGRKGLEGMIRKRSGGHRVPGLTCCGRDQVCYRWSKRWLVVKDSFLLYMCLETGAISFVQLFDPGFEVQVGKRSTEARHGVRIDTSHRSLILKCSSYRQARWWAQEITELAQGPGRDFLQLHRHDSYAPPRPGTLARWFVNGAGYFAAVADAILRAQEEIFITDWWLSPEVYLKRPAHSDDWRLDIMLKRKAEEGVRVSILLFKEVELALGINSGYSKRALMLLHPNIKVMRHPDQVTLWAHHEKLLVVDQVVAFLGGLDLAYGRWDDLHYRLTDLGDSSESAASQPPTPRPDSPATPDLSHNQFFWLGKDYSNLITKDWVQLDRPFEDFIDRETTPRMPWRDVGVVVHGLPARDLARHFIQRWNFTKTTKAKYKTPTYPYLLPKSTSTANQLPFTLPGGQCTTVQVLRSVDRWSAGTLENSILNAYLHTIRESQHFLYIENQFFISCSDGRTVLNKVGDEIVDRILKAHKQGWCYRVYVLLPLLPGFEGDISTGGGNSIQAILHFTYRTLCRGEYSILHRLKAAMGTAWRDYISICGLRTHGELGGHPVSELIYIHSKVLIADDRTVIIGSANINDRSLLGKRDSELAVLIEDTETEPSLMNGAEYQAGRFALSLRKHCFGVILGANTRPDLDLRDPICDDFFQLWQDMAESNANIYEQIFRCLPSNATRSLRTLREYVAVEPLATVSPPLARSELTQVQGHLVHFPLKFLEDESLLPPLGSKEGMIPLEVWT

The IC50 is the concentration that gives 50% inhibition. Read a low IC50 as greater potency. Consider `O=C(NCCN1CCC2(CC1)C(=O)NCN2c1ccccc1)c1cnc2ccccc2n1`, for which the IC50 at Phospholipase D1 and at Phospholipase D2 was over 20000 nM in each case.

With `O=C(C#Cc1ccccc1)NCCN1CCC2(CC1)C(=O)NCN2c1ccccc1`, the figures for the IC50 at Phospholipase D1 and against Phospholipase D2 were 2100 nM and 1600 nM, respectively.

For `COc1cc(C(=O)NCCN2CCC3(CC2)C(=O)NCN3c2ccccc2)ccc1N`, the figures for the IC50 at Phospholipase D1 and at Phospholipase D2 were 5900 nM and 550 nM, respectively.

As to `O=C(NCCN1CCC2(CC1)C(=O)NCN2c1ccccc1)c1cc2ccccc2s1`, the IC50 was found to be 150 nM against Phospholipase D1 and 30 nM against Phospholipase D2.

In the case of `O=C(NCCN1CCC2(CC1)C(=O)NCN2c1ccccc1)c1ccc2ccccc2c1`, the fold change (FC) with HEK293 amounted to 9.

Regarding `C[C@@H](CN1CCC2(CC1)C(=O)NCN2c1ccccc1)NC(=O)[C@H]1C[C@@H]1c1ccccc1`, the half-maximal inhibitory concentration (IC50) on Phospholipase D1 came to 2600 nM; on Phospholipase D2 it was 30000 nM.

Regarding `O=C(NCCN1CCC2(CC1)C(=O)NCN2c1ccccc1)[C@H]1C[C@@H]1c1ccccc1` (relative stereo), the IC50 against Phospholipase D1 and on Phospholipase D2 was over 20000 nM in each case.

The molecule `O=C(NCCN1CCC(n2c(=O)[nH]c3ccccc32)CC1)c1ccc2ccccc2c1` displayed a fold change (FC) in the test on HEK293 of over 1700.

Turning to `C[C@@H](CN1CCC2(CC1)C(=O)NCN2c1ccccc1)NC(=O)c1ccc(F)c(F)c1`, the figures for the IC50 on Phospholipase D1 and against Phospholipase D2 were 150 nM and 200 nM, respectively.

Regarding `Cc1cccc(C(=O)N[C@@H](C)CN2CCC3(CC2)C(=O)NCN3c2ccccc2)c1`, the figures for the IC50 at Phospholipase D1 and at Phospholipase D2 were 3400 nM and 27000 nM, respectively.
